Here are results for nine compounds from ChEMBL document CHEMBL3232974, “In vivo optimization of 2,3-diaminopyrazine Rho Kinase inhibitors for the treatment of glaucoma” (Bioorg Med Chem Lett, 2014).

Series [1] is described as follows: Drug level in Dutch-Belted rabbit aqueous humor at 100 ug administered as topical ocular instillation after 30 mins by RP-HPLC analysis. It counts as ADME, Oryctolagus cuniculus, Aqueous humor of eyeball. Particulars: topical or ocular, read-out: Drug uptake.
Series [2] addresses Rho-associated protein kinase 2 (Homo sapiens, UniProt O75116). Briefly: Inhibition of truncated ROCK-2 (unknown origin) after 60 mins by IMAP assay.
The target in series [3] is Rho-associated protein kinase 1 (Homo sapiens, UniProt Q13464). Briefly: Inhibition of truncated ROCK-1 (unknown origin).
For series [4], the species on record is Cavia porcellus. Briefly: Antiglaucoma activity in guinea pig assessed as hyperemia at 100 ug after 2 hrs relative to control. The format is functional.
Series [5] can be described thus: Aqueous solubility of the compound. It counts as physicochemical. Particulars: buffer.
Series [6] deals with Cynomolgus monkey. Put plainly: Antiglaucoma activity in cynomolgus monkey assessed as reduction in intraocular pressure at MTD administered as topical ocular dose after 6 hrs relative to control. The format is functional, Macaca fascicularis, Eye. Details: scale not given: the % may be the effect or the level left.
In series [7] the test system is Cynomolgus monkey. Briefly: Toxicity in cynomolgus monkey compound administered as topical ocular dose after 6 hrs. It counts as organism-based, Macaca fascicularis, Eye. Particulars: in vivo, topical_or_ocular.
The species entered for series [8] is Cavia porcellus. Put plainly: Antiglaucoma activity in guinea pig assessed as lowest dose required for producing 100% hyperemia after 2 hrs. It counts as functional.
The test system of series [9] is Homo sapiens. Briefly: Antiglaucoma activity in human assessed as reduction in intraocular pressure at 0.1% solution administered as topical ocular instillation relative to control. It counts as functional, Eye. Details: scale not given: the % may be the effect or the level left.
Series [10] can be described thus: Drug level in Dutch-Belted rabbit aqueous humor at 300 ug administered as topical ocular instillation after 30 mins by RP-HPLC analysis. It counts as ADME, Oryctolagus cuniculus, Aqueous humor of eyeball. The note with it: topical or ocular, read-out: Drug uptake.
In series [11] the test system is Homo sapiens. Briefly: Antiglaucoma activity in human assessed as reduction in intraocular pressure at 0.25% solution administered as topical ocular dose after 21 days relative to control. The format is functional, Eye. Details: scale not given: the % may be the effect or the level left.
Series [12] in a line: Drug level in Dutch-Belted rabbit aqueous humor at 150 ug administered as topical ocular instillation after 30 mins by RP-HPLC analysis. It counts as ADME, Oryctolagus cuniculus, Aqueous humor of eyeball. The note with it: topical or ocular, read-out: Drug uptake.
For series [13], the species on record is Cavia porcellus. Put plainly: Antiglaucoma activity in guinea pig assessed as hyperemia at 30 ug after 2 hrs relative to control. The format is functional.
The species entered for series [14] is Cavia porcellus. Briefly: Antiglaucoma activity in guinea pig assessed as hyperemia at 300 ug after 2 hrs relative to control. It counts as functional.

Some results are limits rather than exact numbers.

Sequence of Rho-associated protein kinase 1 (Q13464 whole entry, the tested form may be a part): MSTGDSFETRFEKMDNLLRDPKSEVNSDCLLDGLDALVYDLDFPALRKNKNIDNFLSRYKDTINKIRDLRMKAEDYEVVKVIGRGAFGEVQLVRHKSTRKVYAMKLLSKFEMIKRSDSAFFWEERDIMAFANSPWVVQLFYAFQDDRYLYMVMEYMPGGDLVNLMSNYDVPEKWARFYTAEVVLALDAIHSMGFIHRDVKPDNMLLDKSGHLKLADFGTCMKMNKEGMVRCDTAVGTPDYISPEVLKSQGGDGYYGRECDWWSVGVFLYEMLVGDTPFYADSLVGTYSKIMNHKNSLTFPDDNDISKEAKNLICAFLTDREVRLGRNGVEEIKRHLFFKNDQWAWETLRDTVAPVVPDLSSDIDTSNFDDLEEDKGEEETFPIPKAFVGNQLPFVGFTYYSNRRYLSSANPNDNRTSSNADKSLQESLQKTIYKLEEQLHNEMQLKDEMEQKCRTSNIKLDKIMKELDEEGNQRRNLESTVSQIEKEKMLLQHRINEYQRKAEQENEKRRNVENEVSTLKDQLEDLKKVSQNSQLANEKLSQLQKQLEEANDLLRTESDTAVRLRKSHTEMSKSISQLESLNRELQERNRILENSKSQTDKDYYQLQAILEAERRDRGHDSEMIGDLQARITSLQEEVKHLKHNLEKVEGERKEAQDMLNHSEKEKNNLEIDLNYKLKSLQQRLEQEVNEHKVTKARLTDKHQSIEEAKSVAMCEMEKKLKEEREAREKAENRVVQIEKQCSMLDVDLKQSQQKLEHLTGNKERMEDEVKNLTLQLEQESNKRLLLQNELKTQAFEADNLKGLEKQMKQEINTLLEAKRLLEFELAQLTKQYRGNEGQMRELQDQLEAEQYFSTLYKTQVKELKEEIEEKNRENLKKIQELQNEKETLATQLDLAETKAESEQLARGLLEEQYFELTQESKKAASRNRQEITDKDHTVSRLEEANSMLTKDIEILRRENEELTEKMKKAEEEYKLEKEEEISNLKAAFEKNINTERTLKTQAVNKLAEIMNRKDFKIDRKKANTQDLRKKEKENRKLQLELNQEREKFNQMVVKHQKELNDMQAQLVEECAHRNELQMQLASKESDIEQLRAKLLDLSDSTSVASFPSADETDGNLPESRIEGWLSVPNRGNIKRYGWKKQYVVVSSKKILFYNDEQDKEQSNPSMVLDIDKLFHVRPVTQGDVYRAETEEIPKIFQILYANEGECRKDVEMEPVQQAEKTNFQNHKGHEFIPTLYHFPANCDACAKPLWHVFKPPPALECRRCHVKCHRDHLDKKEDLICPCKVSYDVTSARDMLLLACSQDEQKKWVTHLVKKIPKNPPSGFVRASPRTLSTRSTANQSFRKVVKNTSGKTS
Sequence of Rho-associated protein kinase 2 (O75116 whole entry, the tested form may be a part): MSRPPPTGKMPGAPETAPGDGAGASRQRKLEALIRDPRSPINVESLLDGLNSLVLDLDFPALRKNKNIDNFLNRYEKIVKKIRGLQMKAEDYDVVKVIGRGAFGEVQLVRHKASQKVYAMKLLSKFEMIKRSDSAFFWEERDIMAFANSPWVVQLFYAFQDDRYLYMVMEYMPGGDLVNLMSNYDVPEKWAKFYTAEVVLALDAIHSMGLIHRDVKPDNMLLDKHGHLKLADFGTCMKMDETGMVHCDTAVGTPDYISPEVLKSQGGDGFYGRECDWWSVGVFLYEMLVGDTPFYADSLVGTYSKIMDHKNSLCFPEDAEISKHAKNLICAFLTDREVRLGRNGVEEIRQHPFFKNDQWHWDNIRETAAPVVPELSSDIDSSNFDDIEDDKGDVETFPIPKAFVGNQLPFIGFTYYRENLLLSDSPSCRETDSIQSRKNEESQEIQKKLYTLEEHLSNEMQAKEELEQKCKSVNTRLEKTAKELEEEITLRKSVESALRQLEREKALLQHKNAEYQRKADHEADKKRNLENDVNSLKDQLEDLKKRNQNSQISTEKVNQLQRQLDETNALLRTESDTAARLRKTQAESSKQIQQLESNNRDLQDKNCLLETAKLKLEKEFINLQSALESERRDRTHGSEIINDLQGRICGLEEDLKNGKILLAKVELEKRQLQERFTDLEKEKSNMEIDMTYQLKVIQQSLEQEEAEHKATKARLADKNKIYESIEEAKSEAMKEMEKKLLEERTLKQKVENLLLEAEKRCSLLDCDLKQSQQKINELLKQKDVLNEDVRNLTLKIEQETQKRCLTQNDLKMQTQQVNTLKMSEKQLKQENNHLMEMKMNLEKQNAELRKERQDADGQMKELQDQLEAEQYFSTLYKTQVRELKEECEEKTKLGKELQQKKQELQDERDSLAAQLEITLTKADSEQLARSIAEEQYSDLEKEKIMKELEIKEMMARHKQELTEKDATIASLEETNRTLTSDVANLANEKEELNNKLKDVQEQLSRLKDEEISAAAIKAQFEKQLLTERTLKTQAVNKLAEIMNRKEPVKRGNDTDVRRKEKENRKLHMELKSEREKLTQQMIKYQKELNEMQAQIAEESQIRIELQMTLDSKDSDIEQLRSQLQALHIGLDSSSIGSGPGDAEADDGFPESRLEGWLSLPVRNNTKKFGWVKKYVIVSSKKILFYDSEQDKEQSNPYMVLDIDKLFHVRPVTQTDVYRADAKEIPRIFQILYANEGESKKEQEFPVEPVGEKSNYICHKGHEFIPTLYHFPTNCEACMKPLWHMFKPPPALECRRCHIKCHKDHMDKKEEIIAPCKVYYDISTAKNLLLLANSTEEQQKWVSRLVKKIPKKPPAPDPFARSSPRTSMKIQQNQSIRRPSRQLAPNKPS

A word on the IC50: it is the point on the concentration scale where inhibition reaches its midpoint. For `CC(=O)NCC(O)CN1CCN(c2nc(-c3ccncc3)cnc2N2CCCC2)CC1` (configuration not stated), the concentration at 0.5 h in series [1] worked out at 4800 nM. Besides, the IC50 in series [2] was found to be 68 nM; in [3], 350 nM. Further, the Activity worked out at 42% in the series filed under Cavia porcellus [4] and 9% in the series with Cynomolgus monkey [6]. In series [5], the solubility result is listed as “soluble”. Also, the MTD in the series on Cynomolgus monkey [7] is given as 0.33%.
On to `c1cc2[nH]ncc2cc1-c1cncc(N2CCCNCC2)n1`, for which, in [1], the concentration at 0.5 h came out at 1000 nM. The IC50 in series [2] is 24 nM; in series [3], 105 nM. Besides, the Activity in the series filed under Cavia porcellus [8] was 30 µg; in the series with Cynomolgus monkey [6], 30%. The same compound returned an MTD in the series with Cynomolgus monkey [7] of 0.33%.
As to `C[C@@H](N)c1ccc(C(=O)Nc2ccnc3[nH]ccc23)cc1` [Y-39983], the figures for the Activity with Homo sapiens [9], in the series listed under Cavia porcellus [8] and with Cynomolgus monkey [6] were 22%, 3 µg and less than 15%, respectively. Besides, the concentration at 0.5 h in series [10] was determined as 4400 nM. In addition, the solubility entry in [5] is “soluble”. Moreover, in the series with Cynomolgus monkey [7], the MTD is on record as 0.1%.
Consider `OCCN1CCN(c2nc(-c3ccncc3)cnc2N2CCCC2)CC1`, for which the IC50 in [2] turned out to be 39 nM; in [3], 570 nM. The concentration at 0.5 h in series [10] stood at 3800 nM. Further, the values for the Activity in the series filed under Cavia porcellus [4] and with Cynomolgus monkey [6] were 33% and 26%, respectively. In series [5], the solubility entry is “soluble”. The MTD in the series on Cynomolgus monkey [7] was found to be 1%.
For `CNC(CC1CCCCC1)C(=O)Nc1ccc2cnccc2c1` (configuration not stated), the Activity with Homo sapiens [11] was 20%.
Take `Cc1n[nH]c2ccc(-c3cncc(N4CCCNCC4)n3)cc12`: in series [1], the concentration at 0.5 h is 200 nM. Also, the IC50 was 36 nM in series [2] and 140 nM in series [3]. Also, the Activity with Cynomolgus monkey [6] was 31%. Further, the MTD with Cynomolgus monkey [7] came to 0.33%.
Consider `CC(=O)NCCCN1CCN(c2nc(-c3ccncc3)cnc2N2CCCC2)CC1`, for which the concentration at 0.5 h in series [12] was 8300 nM. In addition, the IC50 was found to be 75 nM in series [2] and 346 nM in series [3]. In addition, the Activity came to 66% in the series filed under Cavia porcellus [13] and 24% in the series on Cynomolgus monkey [6]. Moreover, in series [5], the solubility entry was “soluble”. The same compound displayed an MTD in the series on Cynomolgus monkey [7] of 0.5%.
Take `CN(C)CC(O)CN1CCN(c2nc(-c3ccncc3)cnc2N2CCCC2)CC1` (configuration not stated): the concentration at 0.5 h in [12] was 950 nM. For the same compound, the IC50 in series [2] is 76 nM; in series [3], 288 nM. Further, the Activity in the series filed under Cavia porcellus [14] amounted to 58%; in the series on Cynomolgus monkey [6], 14%. Besides, the solubility entry in series [5] was “soluble”. The MTD in the series on Cynomolgus monkey [7] amounted to 1%.
As for `c1nc(N2CCCC2)c(N2CCCNCC2)nc1-c1cc2cn[nH]c2cn1`, the concentration at 0.5 h in [12] amounted to 680 nM. In addition, the IC50 came to 65 nM in series [2] and 203 nM in series [3]. Moreover, the Activity in the series listed under Cavia porcellus [8] came out at 30 µg; with Cynomolgus monkey [6], 26%. The compound further returned an MTD with Cynomolgus monkey [7] of 0.33%.
